# US8551312B2, “Process to prepare amino acid-N, N-diacetic acid compounds” (Akzo Nobel N.V., priority 2006, dated 2013)
# Legend:
# Type in all cases: physicochemical
# [1] = Corrosiveness against aluminium, weight loss of submerged plates; details: aluminium plates submerged in c. 40 wt % chelate solution at RT
# Protocol: (§1) Commercial Dissolvine® GL-38, Dissolvine® H-40 ex Akzo Nobel Chemicals, and Trilon® M ex BASF were used as reference GLDA-Na4, HEDTA-Na3, and MGDA-Na3, respectively. The partially acidified chelates (40% in water) were prepared by addition of the corresponding chelate acid (in water) to the commercial product until the highest pH was obtained at which less than 0.1 wt % fully neutralized chelate is present. GLDA-H4 was prepared by electrodialysis and MGDA-Nax<3H3−x was made from Trilon® M by ion exchange. The desired pH was derived from the species distribution graphs that are based on the protonation constants. The resulting chelate solutions all have a chelate content (Fe-TSV) between 38.3 and 43 wt % of the salt actually present.
# The corrosiveness against aluminium was determined using unspecified aluminium plates. The aluminium plates of 6×3×0.2 cm, supplied by the technical service, were cleaned with ethanol cleaner and dried and the weight of the plates was measured. Subsequently, the plates were completely submerged in the commercial or partially acidified chelate solution and kept at RT. In time, the plates were removed from the solutions, rinsed, dried by technical air, and weighted. The corrosiveness was expressed as the weight loss after a certain period of time. Furthermore, the aluminium plates and the chelate solution were visually inspected to evaluate the corrosion process.
# [2] = Conductivity of c. 40 wt % chelate solution (Knick Konductometer 703); details: c. 40 wt % chelate in water
# Protocol: as §1
# The conductivity was measured with a Knick Konductometer 703.
# [3] = Viscosity (Brookfield DV-II+ pro viscometer, S-18 spindle); details: c. 40 wt % chelate in water
# Protocol: as §1
# The viscosity was determined with a Brookfield DV-II+ pro viscometer, using a S-18 spindle. The temperature was maintained with a cryostat.
# [4] = pH of the c. 40 wt % chelate solution by glass electrode; details: c. 40 wt % chelate solution as such
# Protocol: as §1, with “constants.” for “constants. The resulting chelate solutions all have a chelate content (Fe-TSV) between 38.3 and 43 wt % of the salt actually present.”
# The pH of the c. 40 wt % chelate solution as such was determined by a glass electrode.
Conductivity (mS/cm) at 20° C. [2] [mS/cm],Viscosity at 20° C. (Mpas) [3] [Mpas],Viscosity at 40° C. (Mpas) [3] [Mpas],pH [4],Compound,Corrosiveness Aluminium (% weigth loss after 70 hr) [1] [% weigth loss]
20.29,31,14.7,13.4,O=C([O-])CN(CCO)CCN(CC(=O)[O-])CC(=O)[O-].[Na+].[Na+].[Na+] [HEDTA-Na3],7
25.8,26,11.0,13.5,CC(C(=O)[O-])N(CC(=O)[O-])CC(=O)[O-].[Na+].[Na+].[Na+] (stereo not drawn) [MGDA-Na3],6

Compound,Conductivity (mS/cm) at 20° C. [2] [mS/cm],Viscosity at 20° C. (Mpas) [3] [Mpas],Viscosity at 40° C. (Mpas) [3] [Mpas],pH [4],Corrosiveness Aluminium (% weigth loss after 70 hr) [1] [% weigth loss]
"tetrasodium glutamic acid-N,N-diacetate [GLDA-Na4]",20.9,51.5,21.4,13.5,7
